# Reference: patent publication US10653687B2, “Methods and pharmaceutical compostions for treating rhabdomyolysis” (INSERM (INSTITUT NATIONAL DE LA SANTE ET DE LA RECHERCHE …, priority 2015, dated 2020)
# Entries after “also recorded” stand apart in the source; their conditions may differ.
# Columns and labels:
# [1] = biological target: T1, TLR9 (Homo sapiens, UniProt Q9NR96); assay: IL-6 secretion of myoblasts stimulated with CpG-A (TLR9 ligand) after pre-treatment with TLR9 antagonists; type: cell-based; details: myoblasts pre-treated with the substance, then stimulated with CpG-A
# T1 construct: endogenous in cells; host or cells: primary human CD56+ myoblasts from muscle biopsies
# T1 sequence (Q9NR96 26-1032): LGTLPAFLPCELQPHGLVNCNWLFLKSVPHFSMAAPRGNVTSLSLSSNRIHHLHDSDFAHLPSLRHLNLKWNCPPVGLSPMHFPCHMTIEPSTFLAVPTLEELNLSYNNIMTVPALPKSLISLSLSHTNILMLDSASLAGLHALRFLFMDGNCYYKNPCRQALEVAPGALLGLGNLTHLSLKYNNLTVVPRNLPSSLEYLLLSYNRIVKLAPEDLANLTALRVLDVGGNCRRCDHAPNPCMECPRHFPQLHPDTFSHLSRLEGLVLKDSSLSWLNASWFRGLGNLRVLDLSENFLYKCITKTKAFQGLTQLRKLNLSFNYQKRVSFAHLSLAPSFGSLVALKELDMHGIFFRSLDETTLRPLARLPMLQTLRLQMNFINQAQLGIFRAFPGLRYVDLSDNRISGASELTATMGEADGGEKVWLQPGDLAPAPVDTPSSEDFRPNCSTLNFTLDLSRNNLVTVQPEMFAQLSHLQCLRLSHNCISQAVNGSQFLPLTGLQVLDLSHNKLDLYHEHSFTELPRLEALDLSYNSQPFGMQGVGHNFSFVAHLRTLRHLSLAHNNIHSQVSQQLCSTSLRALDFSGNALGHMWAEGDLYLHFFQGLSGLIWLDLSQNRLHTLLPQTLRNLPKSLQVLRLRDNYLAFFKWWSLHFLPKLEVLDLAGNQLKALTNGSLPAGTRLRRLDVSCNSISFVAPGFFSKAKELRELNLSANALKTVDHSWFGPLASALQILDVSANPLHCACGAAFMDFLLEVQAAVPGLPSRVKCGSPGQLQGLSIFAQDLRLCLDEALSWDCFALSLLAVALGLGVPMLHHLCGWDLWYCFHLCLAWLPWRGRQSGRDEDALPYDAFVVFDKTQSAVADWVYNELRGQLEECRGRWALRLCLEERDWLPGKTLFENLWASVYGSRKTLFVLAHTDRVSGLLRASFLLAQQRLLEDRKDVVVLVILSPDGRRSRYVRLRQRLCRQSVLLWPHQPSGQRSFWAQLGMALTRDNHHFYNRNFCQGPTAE
# Description: Human primary myoblasts were isolated and grown as described. CD56+ myoblasts were isolated by flow cytometry cell sorting using an anti CD56-APC conjugated antibody (e. Biosciences) and routinely maintained in F10 medium supplemented with 20% Fetal Bovine Serum (FBS).
# After 12 hours of TLR stimulation of DC at 37° C. in humidified air containing 5% CO2, the concentrations of human IL-8, IL-6, tumor necrosis factor (TNF)-α, IL-1β, IL-10, IL-4, Monocyte Chemoattractant Protein-1 (MCP-1), RANTES (Regulated on Activation, Normal T cell Expressed and Secreted), and Macrophage Inflammatory Protein (MIP)-1-α and β in the culture supernatants were measured with a human cytokine Cytometric Bead Assay (CBA) kit (BD Biosciences, San Jose, Calif.) in accordance with the manufacturer's instructions. In brief, 50 μL of supernatant was mixed with 50 μL of mixed capture beads, and a standard curve was generated. After 3 hours of incubation at room temperature, the samples were washed and suspended in Phosphate-Buffered Saline (PBS) and then analyzed by flow cytometry (ARIA II; BD Biosciences) with CBA Analysis Software (FCAP Array version 3.0; Soft Flow, St Louis Park, Minn.). The results are expressed in picograms per milliliter. […]
# [2] = tested on: myoblasts; assay: Intracellular calcium mobilization in myoblasts (Fluo-4 Assay); type: cell-based, human; details: for intracellular calcium mobilization in patient myoblasts stimulated with CpG-A: pre-treatment, concentration not given; for intracellular calcium on stimulation with the substance: control and patient myoblasts, live imaging
# Description: Intracellular calcium mobilization was measured in myoblasts using the Fluo-4 Assay from Invitrogen according to the manufacturer's directions and as defined previously. Cells were loaded with 1 μm Fluo-4 for 30 min at 37° C. in 5% CO2/95% O2, as described previously […]. The plates were then transferred to a temperature-controlled stage (Harvard Apparatus, Holliston, Mass., USA) on an Olympus IX-70 inverted microscope. Cultures were visualized using a 40×0.7 numerical aperture fluorite water-immersion objective (TC-SP8 Leica).
# To evaluate the link between muscle damage and inflammation, we explored TLR ligand involvement in the control of intracellular Ca2+ dynamics, as its intracellular increase is the hallmark of rhabdomyolysis. The levels of intracellular Ca2+ recorded using live imaging of resting cells were equivalent among control and patient cells. […] This effect observed with patient cells was specific for TLR9 ligands since no response was observed following exposure to LPS or Imiquimod in both patient and control cells. Pre-treatment with 10 μM of chloroquine or ODN-i abolished intracellular calcium mobilization in patient cells in presence of CpG-A completely. […] To obtain additional evidence for the role of inflammation in muscle damage, we measured ATP production in myoblasts following stimulation with CpG-A; we found an impairment of ATP production following stimulation with inflammatory stimuli in patient cells compared to control. To confirm the deleterious effect of TLR9 ligands in patient myoblasts, we incubated myoblasts with increasing doses of CpG-A and measured cellular mortality at different time point as accessed by the viability assay. Myoblasts from patients were exclusively sensitive to TLR9 ligands.
# [3] = Treatment of lipin-1 patients with hydroxychloroquine: muscle pain and serum cytokines; type: in vivo, human; details: two patients, 6 mg/Kg/day, at three months of treatment
# Description: Two patients were treated with hydroxychloroquine (Plaquenil®, 6 mg/Kg/day).
structure (smiles),measurement,setting,value
COc1cc(NC(C)CCCN)c2ncccc2c1 (stereo not shown) [primaquine],secretion of IL-6 after stimulation by CpG-A,[1],attenuate or abolish; also recorded: abolish
same,intracellular calcium mobilization in patient myoblasts stimulated with CpG-A,[2],abolish
CCN(CCO)CCCC(C)Nc1ccnc2cc(Cl)ccc12 (stereo not shown) [hydroxychloroquine],muscle pain,[3],decrease
same,"pro-inflammatory cytokines (IL-8, RANTES, MCP-1) in sera",[3],dramatic decrease
"CC(C)Cn1cnc2c(N)nc3ccccc3c21 [Imiquimod, imiquimod]",intracellular calcium on stimulation with the substance,[2],no response
CCN(CC)CCCC(C)Nc1ccnc2cc(Cl)ccc12 (stereo not shown) [chloroquine],secretion of IL-6 after stimulation by CpG-A,[1],attenuate or abolish; also recorded: abolish
same,intracellular calcium mobilization in presence of CpG-A,"[2]; patient cells (myoblasts), pre-treatment with 10 μM",abolished
same,intracellular calcium mobilization in patient myoblasts stimulated with CpG-A,[2],abolish
O=C1CN(/N=C/c2ccc(-c3ccc([N+](=O)[O-])cc3)o2)C(O)=N1 [dantrium],elevation of intracellular calcium,"[2]; patient myoblasts, chelation of intracellular calcium",inhibited
C[C@H](CCC(=O)O)C[C@H](C)C[C@H](C)C(=O)/C=C(\O)[C@H](C)C[C@H](C)C/C=C/[C@@H](C)[C@@H](O)[C@@H](C)[C@@H](O)C[C@@H]1CC[C@@](C)([C@H]2CC[C@@](C)([C@@H](C)O)O2)O1 [ionomycin],intracellular calcium on stimulation with the substance,[2],induced a rapid calcium flux
